Measurements published in patent US20200179402A1, “MONOHYDROXYLATED 17ALPHA-HYDROXYPROGESTERONE CAPROATE FOR REDUCING CONTRACTILITY” (Indiana University Research and Technology Corporation, priority 2016, published 2020).
Each block holds one compound with its values, some of them ahead of it.

Columns and labels:
[1] = tested on: human myometrial tissue; test: Oxytocin-induced uterine contractility in human myometrial tissue strips (myograph); type: cell-based; details: oxytocin 100 nm; for oxytocin-induced contractile force (AUC) / oxytocin-induced contractile frequency: 10^−6 M for 30 minutes, over a 4-hour period, normalized to matched vehicle control (DMSO)
Procedure: In this Example, the effect of the monohydroxylated 17α-hydroxyprogesterone caproate (HPC-OH), 17α-hydroxyprogesteryl 6-hydroxycaproate, as compared to its parent compound, 17-hydoxyprogesterone caproate (HPC), and progesterone (P4) was analyzed in the setting of oxytocin-induced uterine contractility in human myometrial tissue. […] Myometrial strips (10 mm) were mounted in a digital myograph system ([…]) and maintained in modified Krebs buffer solution at physiologic temperature (37° C.) with constant premixed gas inflow. Oxytocin-induced (100 nm) contractility was measured before and after treatment with HPC-OH, HPC, or P4 (1 μm) for 30 minutes. Myometrial contractile frequency and force (AUC) were determined for each treatment over a 4-hour period and normalized to a matched vehicle control (DMSO). Statistical analysis was by student t-test (GraphPad Prism 7.0a). Statistical significance was defined as p<0.05.

[2] = tested on: THP-1 mononuclear cells; test: LPS-induced cytokine production by THP-1 mononuclear cells (multiplex assay); type: cell-based; details: 100 nM for 24 hours, then LPS 1 μg/mL for 24 hours
Procedure: In this Example, the ability of HPC—OH to decrease systemic inflammation-induced myometrial contractility was compared to HPC and progesterone (P4).
(§1) An in vitro model of systemic inflammation-induced uterine contractility was created with mononuclear and myometrial cell cultures to assess the effect of progestogen treatment. THP-1 mononuclear cells were cultured with HPC—OH (17α-hydroxyprogesteryl 6-hydroxycaproate), HPC, or P4 (all at 100 nM) for 24 hours then treated with lipopolysaccharide (LPS, 1 μg/mL) for 24 hours. Culture supernatant was characterized by multiplex assay for 7 inflammation-related cytokines: IL-1α, […], IL-6, IL-8, IL-10, TNFα, and MCP-1. Next, PHM1-41 human pregnancy myometrial cells pretreated with HPC for 24 hours were incubated with THP-1 culture supernatant (from the previous step) for 24 hours. Myometrial contractility was assessed after stimulation with 100 μM oxytocin by in-cell western (ICW) quantification of myosin light chain (MLC20) phosphorylation, a molecular event preceding contractility.

[3] = tested on: PHM1-41 human pregnancy myometrial cells; test: MLC20 phosphorylation by in-cell western in HPC-primed myometrial cells incubated with THP-1 culture supernatant; type: cell-based; details: supernatant of treated THP-1 cells for 24 hours, 100 μM oxytocin
Procedure: as §1

[4] = human, in vivo
Procedure: (§2) Female patients with a singleton pregnancy received intramuscular doses of 250 mg hydroxyprogesterone caproate for the reduction of preterm birth starting between 16 weeks 0 days and 20 weeks 6 days. More particularly, the patients were divided into three sample groups: Group 1 (patients at 16-20 weeks gestation); Group 2 (patients at 24-28 weeks gestation); and Group 3 (patients at 32-36 weeks gestation). All patients had blood drawn daily for 7 days to evaluate pharmacokinetics.

[5] = women with history of prior spontaneous preterm birth, clinical trials; cited from earlier work
[6] = Pharmacokinetics in pregnant patients given intramuscular hydroxyprogesterone caproate; details: female, human, plasma, im, 250 mg; for AUC: AUC(1-t); for AUC / Cmax / Tmax: 250 mg intramuscular; for AUC / Cmax: mean (standard deviation)
Procedure: as §2

[7] = Group 1 (16-20 weeks gestation, N = 6)
[8] = Group 2 (24-28 weeks gestation, N = 8)
[9] = Group 3 (32-36 weeks gestation, N = 11)

Compound: CC(=O)[C@H]1CC[C@H]2[C@@H]3CCC4=CC(=O)CC[C@]4(C)[C@H]3CC[C@]12C [P4, progesterone]
oxytocin-induced contractile force (AUC) [1]: 75%+/−30% | oxytocin-induced contractile frequency [1]: 63%+/−18% | production of IL-10 [2]: did not diminish | MLC20 phosphorylation [3]: Increased phosphorylation

Compound: CC(=O)[C@@]1(OC(=O)CCCCCO)CC[C@H]2[C@@H]3CCC4=CC(=O)CC[C@]4(C)[C@H]3CC[C@@]21C [HPC—OH, 17α-hydroxyprogesteryl 6-hydroxycaproate]
oxytocin-induced contractile force (AUC) [1]: 66%+/−33% | oxytocin-induced contractile frequency [1]: 67%+/−21% | contractile force when compared directly to HPC ([1]; 10^−6 M, compared directly to HPC): 64%+/−33% | monocyte production of IL-1α [2]: did not result in a statistically significant change | monocyte production of IL-1β [2]: did not result in a statistically significant change | monocyte production of IL-6 [2]: did not result in a statistically significant change | monocyte production of IL-8 [2]: did not result in a statistically significant change | production of IL-10 [2]: did not diminish | production of MCP-1 [2]: decreased | significantly increase TNFα production [2]: not | levels of TNFα produced, compared with exposure to HPC ([2]; versus HPC): significantly lower | MLC20 phosphorylation compared with HPC treated supernatant ([3]; versus HPC treated supernatant): trended towards a significant decline | half-life as compared to HPC [4]: longer half-life

half-life [6]: 394 h | AUC [6, 7]: 571 ng·h/mL | AUC [6, 8]: 1270 ng·h/mL | AUC [6, 9]: 1270 ng·h/mL | Cmax [6, 7]: 5 ng/mL | Cmax [6, 8]: 12.5 ng/mL | Cmax [6, 9]: 12.3 ng/mL | Tmax [6, 7]: 132 h | Tmax [6, 8]: 24 h | Tmax [6, 9]: 48 h
Compound: CCCCCC(=O)O[C@]1(C(C)=O)CC[C@H]2[C@@H]3CCC4=CC(=O)CC[C@]4(C)[C@H]3CC[C@@]21C [HPC, 17α-hydroxyprogesterone caproate]
oxytocin-induced contractile frequency [1]: 71%+/−15% | production of IL-10 [2]: significantly reduced | production of MCP-1 [2]: decreased | significantly increase TNFα production [2]: significantly increase | risk reduction of recurrent preterm delivery [5]: 33%
